Assays:
Experiment in all cases: Kinase panel (mobility shift)
Type in all cases: biochemical
EPH-B2 = molecular target: T1, EPH-B2 (Homo sapiens, UniProt P29323); details: at 5 um
T1 sequence (P29323 19-1055): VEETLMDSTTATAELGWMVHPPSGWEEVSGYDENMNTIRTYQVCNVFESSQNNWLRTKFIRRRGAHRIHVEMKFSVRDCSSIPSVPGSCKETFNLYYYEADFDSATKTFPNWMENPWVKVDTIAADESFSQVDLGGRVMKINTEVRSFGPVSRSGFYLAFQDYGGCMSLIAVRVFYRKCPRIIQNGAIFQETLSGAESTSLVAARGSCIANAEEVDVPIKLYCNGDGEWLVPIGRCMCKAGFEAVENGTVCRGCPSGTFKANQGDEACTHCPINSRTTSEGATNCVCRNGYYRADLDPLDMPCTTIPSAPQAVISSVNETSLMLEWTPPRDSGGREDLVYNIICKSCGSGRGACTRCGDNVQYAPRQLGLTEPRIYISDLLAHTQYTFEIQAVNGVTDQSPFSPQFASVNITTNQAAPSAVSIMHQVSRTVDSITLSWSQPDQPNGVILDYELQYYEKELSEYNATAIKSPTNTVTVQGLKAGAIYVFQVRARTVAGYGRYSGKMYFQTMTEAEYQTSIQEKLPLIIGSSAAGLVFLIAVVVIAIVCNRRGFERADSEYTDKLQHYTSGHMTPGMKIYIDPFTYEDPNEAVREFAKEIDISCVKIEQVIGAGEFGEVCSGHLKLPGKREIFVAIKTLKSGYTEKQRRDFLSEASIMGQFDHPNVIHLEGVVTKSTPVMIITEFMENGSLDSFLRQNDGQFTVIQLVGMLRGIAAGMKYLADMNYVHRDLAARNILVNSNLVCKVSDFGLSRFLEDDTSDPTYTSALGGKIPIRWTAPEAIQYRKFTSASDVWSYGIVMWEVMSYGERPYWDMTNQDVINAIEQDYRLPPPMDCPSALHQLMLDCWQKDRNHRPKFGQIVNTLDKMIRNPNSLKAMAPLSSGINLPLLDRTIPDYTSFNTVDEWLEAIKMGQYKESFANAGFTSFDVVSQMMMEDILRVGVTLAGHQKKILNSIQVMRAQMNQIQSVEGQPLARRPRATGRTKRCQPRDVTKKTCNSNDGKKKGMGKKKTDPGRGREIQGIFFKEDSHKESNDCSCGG
Experimental: (§1) The disclosed compounds were tested for activity against a panel of 299 kinases. The target enzyme was incubated with fluorescently labeled substrate and test compounds in a standardized reaction mixture in 384 well plates. Upon termination of the reaction, samples were introduced onto microfluidic chips. The samples migrated through channels in the chips and product and substrate were separated based on the difference in their charge (electrophoretic mobility shift). Enzyme activity was measured by direct comparison of the fluorescence in the product and substrate peaks. […] In the tables A=95% or greater at 5 um, B=90%-94% at 5 um, and C=80%-89% at 5 um. [note to draft: we included category D for 50-79 and category E is less than 50%. Feel free to remove if not needed)

EPH-A6 = molecular target: T2, EPH-A6 (Homo sapiens, UniProt Q9UF33)
T2 sequence (Q9UF33 23-1036): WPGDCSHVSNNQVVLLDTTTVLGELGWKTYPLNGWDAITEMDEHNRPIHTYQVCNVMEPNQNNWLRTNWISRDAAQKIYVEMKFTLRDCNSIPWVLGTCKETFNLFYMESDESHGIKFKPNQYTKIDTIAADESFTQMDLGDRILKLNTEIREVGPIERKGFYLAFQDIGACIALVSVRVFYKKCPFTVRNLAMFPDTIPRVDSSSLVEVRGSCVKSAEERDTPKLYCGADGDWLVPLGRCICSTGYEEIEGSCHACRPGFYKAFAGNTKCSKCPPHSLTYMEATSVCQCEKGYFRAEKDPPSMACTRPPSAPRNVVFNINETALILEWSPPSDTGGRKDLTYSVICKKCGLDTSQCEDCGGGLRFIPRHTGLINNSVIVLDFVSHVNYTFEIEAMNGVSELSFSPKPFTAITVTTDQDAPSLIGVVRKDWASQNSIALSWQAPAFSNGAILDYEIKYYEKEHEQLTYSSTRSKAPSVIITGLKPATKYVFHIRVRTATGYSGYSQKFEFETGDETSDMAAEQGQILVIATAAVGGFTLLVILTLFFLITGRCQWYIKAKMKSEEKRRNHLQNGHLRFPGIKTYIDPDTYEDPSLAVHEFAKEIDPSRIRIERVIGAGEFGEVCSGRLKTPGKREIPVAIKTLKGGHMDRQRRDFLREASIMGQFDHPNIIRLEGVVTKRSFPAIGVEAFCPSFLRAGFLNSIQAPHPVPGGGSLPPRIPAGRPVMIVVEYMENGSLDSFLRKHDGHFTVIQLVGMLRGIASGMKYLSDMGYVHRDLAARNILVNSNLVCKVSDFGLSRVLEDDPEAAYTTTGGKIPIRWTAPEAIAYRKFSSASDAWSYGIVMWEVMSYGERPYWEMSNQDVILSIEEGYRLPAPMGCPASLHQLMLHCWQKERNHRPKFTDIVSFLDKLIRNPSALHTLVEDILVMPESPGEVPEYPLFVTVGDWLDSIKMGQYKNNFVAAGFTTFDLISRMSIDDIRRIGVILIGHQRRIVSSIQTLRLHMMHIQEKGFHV
Experimental: as §1

BRK = BRK (Homo sapiens, UniProt Q13882)
BRK, sequence (Q13882 whole entry, species assumed): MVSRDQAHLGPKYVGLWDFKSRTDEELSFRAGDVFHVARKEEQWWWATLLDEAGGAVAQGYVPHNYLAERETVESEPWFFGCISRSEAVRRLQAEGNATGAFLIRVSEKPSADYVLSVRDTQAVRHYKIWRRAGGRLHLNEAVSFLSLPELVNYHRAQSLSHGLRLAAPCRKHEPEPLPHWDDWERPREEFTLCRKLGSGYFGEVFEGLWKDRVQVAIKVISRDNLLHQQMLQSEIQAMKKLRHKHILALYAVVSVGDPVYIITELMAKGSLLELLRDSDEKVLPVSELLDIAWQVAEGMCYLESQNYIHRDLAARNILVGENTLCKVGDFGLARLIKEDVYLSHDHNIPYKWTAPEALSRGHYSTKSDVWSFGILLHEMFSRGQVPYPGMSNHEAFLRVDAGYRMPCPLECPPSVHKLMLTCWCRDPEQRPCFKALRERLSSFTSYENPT
Experimental: as §1

| inhibition of kinase activity, EPH-B2 (EPH-B2) | inhibition at 5 µM (EPH-A6) | inhibition at 5 µM (BRK) | SMILES |
| --- | --- | --- | --- |
| D (category D for 50-79) | 80 to 89% | 80 to 89% | CSc1nc(C(=O)Nc2ccc(Oc3ccnc(C(=O)NC4COC4)c3)c(F)c2)c(-c2ccc(F)cc2)o1 [Compound 31] |
| E (category E is less than 50%) | 80 to 89% | 50 to 79% | COc1nc(C(=O)Nc2ccc(Oc3ccnc(C(=O)NC4COC4)c3)c(F)c2)c(-c2ccc(F)cc2)o1 [Compound 39] |
| E (category E is less than 50%) | 50 to 79% | < 50% | CNC(=O)c1cc(Oc2ccc(NC(=O)c3nc(OC)oc3-c3ccc(F)s3)cc2F)ccn1 [Compound 25] |
| E (category E is less than 50%) | < 50% | < 50% | COc1nc(C(=O)Nc2ccc(Oc3ccnc(C(=O)NCC(F)(F)F)c3)c(F)c2)c(-c2ccc(F)cc2)o1 [Compound 43] |
| D (category D for 50-79) | 80 to 89% | 80 to 89% | CNC(=O)c1cc(Oc2ccc(NC(=O)c3nc(NC)oc3-c3ccc(F)cc3)cc2F)ccn1 [Compound 14] |

Second part, the molecule before the results:

| SMILES | inhibition of kinase activity, EPH-B2 (EPH-B2) | inhibition at 5 µM (EPH-A6) | inhibition at 5 µM (BRK) |
| --- | --- | --- | --- |
| [2H]C([2H])([2H])NC(=O)c1cc(Oc2ccc(NC(=O)c3nc(SC)oc3-c3ccc(F)c(F)c3)cc2F)ccn1 [Compound 33] | E (category E is less than 50%) | 50 to 79% | 50 to 79% |
| [2H]C([2H])([2H])NC(=O)c1cc(Oc2ccc(NC(=O)c3nc(SC)oc3-c3ccc(F)s3)cc2F)ccn1 [Compound 35] | D (category D for 50-79) | 50 to 79% | < 50% |
| CSc1nc(C(=O)Nc2ccc(Oc3ccnc(C(=O)NCC(F)(F)F)c3)c(F)c2)c(-c2ccc(F)cc2)o1 [Compound 40] | E (category E is less than 50%) | < 50% | 50 to 79% |
| CNC(=O)c1cc(Oc2ccc(NC(=O)c3nc(SC)oc3-c3ccc(F)cc3Cl)cc2)ccn1 [Compound 3] | E (category E is less than 50%) | 50 to 79% | 90 to 94% |
| CNC(=O)c1cc(Oc2ccc(NC(=O)c3nc(S(C)(=O)=O)sc3-c3ccc(F)cc3)cc2F)ccn1 [Compound 13] | E (category E is less than 50%) | ≥ 95% | 50 to 79% |

— patent US11629143B2, “HipK4 inhibitors and uses thereof” (Vibliome Therapeutics, LLC, priority 2020, dated 2023)
